Reference: US12643926B2, “LysM receptor motifs” (Aarhus Universitet, priority 2020, dated 2026)
“Also recorded” adds a separate entry of the source. Where two headings read alike, the source gives them in different places.

Key:
[1] = target: T1, Medicago truncatula NFP ectodomain, wild type (residues 28-246) (Medicago truncatula, UniProt Q0GXS4); experiment: biolayer interferometry (BLI) binding of S. meliloti Nod factor LCO-IV to NFP WT ectodomain; settings: n = 7
T1 construct: The M. truncatula NFP ectodomain (residues 28-246); AcMNPV gp67 signal peptide, replaces the native signal peptide (N); hexa-histidine (C); made in house; host or cells: Sf9 insect cells (Spodoptera frugiperda), baculovirus
Description: (§1) The M. truncatula NFP ectodomain (residues 28-246) was codon-optimized for insect cell expression (Genscript, Piscataway, USA) and cloned into the pOET4 baculovirus transfer vector (Oxford Expression Technologies). The native NFP signal peptide (residues 1-27, predicted by SignalP 4.1) was replaced with the AcMNPV gp67 signal peptide to facilitate secretion and a hexa-histidine tag was added to the C-terminus. Recombinant baculoviruses were produced in […] (Spodoptera frugiperda) using the FlashBac Gold kit (Oxford Expression technologies) according to the manufacturer's instructions with Lipofectin (ThermoFisher Scientific) as a transfection reagent. Protein expression was performed as follows. Suspension-cultured Sf9 cells were maintained with shaking at 299 K in serum-free MAX-XP (BD-Biosciences, discontinued) or HyClone SFX (GE Healthcare) medium supplemented with 1% Pen-Strep (10000 U/ml, Life technologies) and 1% CD lipid concentrate (Gibco). Protein expression was induced by adding recombinant passage 3 virus once the Sf9 cells reached a cell density of 1.0*10^6 cells/ml. After 5-7 days of expression, medium supernatant containing NFP ectodomains was harvested by centrifugation. This was followed by an overnight dialysis step against 50 mM Tris-HCl pH 8, 200 mM NaCl at 277 K. The NFP ectodomain was enriched by two subsequent steps of Ni-IMAC purification (HisTrap excel/HisTrap HP, both GE Healthcare). For crystallography, N-glycans were removed using the endoglycosidase PNGase F (1:15 (w/w), room temperature, overnight). As a final purification step, NFP ectodomains was purified by SEC on a Superdex 200 10/300 or HiLoad Superdex 200 16/600 (both GE Healthcare) in phosphate buffered saline at pH 7.2 supplemented to a total of 500 mM NaCl (for binding assays) or 50 mM Tris-HCl, 200 mM NaCl (for crystallography). NFP ectodomain eluted as a single, homogeneous peak corresponding to a monomer.
(§2) The binding assay using NFP wild type (WT) was replicated seven times, while the binding assay using the NFP mutant NFP L147D L154D was replicated four times.
Binding of NFP WT and NFP L147D/L154D mutant to S. meliloti Nod factor LCO-IV was measured on an Octet RED 96 system (Pall ForteBio). […] Equilibrium dissociation constants derived from the steady-state were determined by applying a non-linear regression (one site, specific binding) to the response at equilibrium plotted against the protein concentration. Kinetic parameters were determined by non-linear regression (association followed by dissociation) on the subtracted data. […]

[2] = target: T2, Medicago truncatula NFP ectodomain (residues 28-246) double mutant L147D L154D (Medicago truncatula, UniProt Q0GXS4, L147D/L154D); experiment: biolayer interferometry (BLI) binding of S. meliloti Nod factor LCO-IV to NFP L147D L154D ectodomain; settings: double mutant vs WT
T2 construct: The M. truncatula NFP ectodomain (residues 28-246); AcMNPV gp67 signal peptide, replaces the native signal peptide (N); hexa-histidine (C); made in house; host or cells: Sf9 insect cells (Spodoptera frugiperda), baculovirus
Description: as §1
The M. truncatula NFP leucine residues L147 and L154 were replaced with aspartate residues. Aspartate is similar in size to leucine, but negatively charged where leucine is hydrophobic. Point mutants of NFP were engineered using site-directed mutagenesis. In particular, a double-mutated NFP was engineered where the leucine residues L147 and L154 were replaced with aspartate residues to create the mutant NFP L147D L154D. Point mutated versions of the NFP ectodomain were expressed and purified as described above.
as §2
(§3) Binding of NFP WT and NFP L147D/L154D mutant to S. meliloti Nod factor LCO-IV was measured on an Octet RED 96 system (Pall ForteBio). S. meliloti Nod factor LCO-IV consists of a tetrameric/pentameric N-acetylglucosamine backbone that is O-sulfated on the reducing terminal residue, O-acetylated on the non-reducing terminal residue, and mono-N-acylated by unsaturated C16 acyl groups. Biotinylated ligand conjugates were immobilized on streptavidin biosensors (kinetic quality, Pall ForteBio) at a concentration of 125-250 nM for 5 minutes. The binding assays were replicated 7 times for the NFP WT, and 4 times for the NFP L147D/L154D mutant. Data analysis was performed in GraphPad Prism 6 software (GraphPad Software, Inc.). Equilibrium dissociation constants derived from the steady-state were determined by applying a non-linear regression (one site, specific binding) to the response at equilibrium plotted against the protein concentration. Kinetic parameters were determined by non-linear regression (association followed by dissociation) on the subtracted data. Table 9 summarizes the kinetic parameters of FIGS. 18C-18D, with goodness of fit described by the global fit R^2 on the mean value of each point, and number of replicates performed using independent protein preparations (n) indicated.

[3] = system: L. japonicus nfr1-1 loss-of-function mutant; experiment: Nodulation assay: complementation of L. japonicus nfr1-1 hairy roots after M. loti R7A DsRed inoculation; type: in vivo, Lotus japonicus; settings: Nfr1 promoter, five weeks post inoculation
Description: A. rhizogenes carrying the expression constructs of interest were grown for two days on solid medium. The cells of one plate were resuspended in 2 ml YMB media, and this process was repeated for each construct. A 1 ml syringe with a needle (Sterican Ø0.40×20 mm) was then used to transform the plants, whereby the needle was used to puncture the hypocotyl and a droplet with the bacterial suspension was placed on the wound. Petri dishes containing the transformed roots were sealed and left in the dark for two days and then moved to 21° C. under 16 hour light/8 hour dark conditions. After three weeks, plants with transformed roots were moved to Magenta boxes (Sigma-Aldrich) filled with a 4:1 mixture of lightweight expanded clay aggregate (LECA, 2-4 mm; Saint-Gobain Weber A/S) and vermiculite (size M; Damolin A/S) supplemented with 80 ml nitrogen-free ¼× B&D nutrient solution. All plants were grown at 21° C. under 16 hour light/8 hour dark conditions.
Chimeric receptors under the control of the Nfr1 promoter were tested for their ability to complement a L. japonicus nfr1-1 loss-of-function mutant that is unable to develop root nodules (Radutoiu, S. et al. Nature 2003 425). […] At five weeks post inoculation, nodules were counted and images were acquired with a Leica FluoStereo M165FC microscope equipped with the Leica DFC310 FX camera. […]

[4] = system: M. truncatula nfp mutants; experiment: Complementation assay of M. truncatula nfp mutants, inoculation with S. meliloti strain 2011; type: in vivo, Medicago truncatula; settings: nfp mutant roots; 6-7 weeks after inoculation with S. meliloti strain 2011
Excerpt: Construct assembly, plant growth conditions, hairy root transformations, nodulation and ROS assays were generally conducted as described in Bozsoki, et al. 2017 (Bozsoki, Z. et al. Proc. Natl. Acad. Sci. 2017 114: E8118-E8127). The tested transgenes were the mutated LysM receptors described above.

[5] = Biolayer interferometry of A. thaliana CERK1 binding to chitin fragments; settings: BLI; CO5 and CO8; result in words
Description: as §3, with “Table 9 summarizes the kinetic parameters of FIGS. 18C-18D, with goodness of fit described by the global fit R^2 on the mean value of each point, and number of replicates performed using independent protein preparations (n) indicated.” left out
Binding of A. thaliana CERK1 (AtCERK1) to chitopentaose (CO5) and chitooctaose (CO8) was measured in the same way.

T2 sequence (Q0GXS4 28-246 L147D/L154D): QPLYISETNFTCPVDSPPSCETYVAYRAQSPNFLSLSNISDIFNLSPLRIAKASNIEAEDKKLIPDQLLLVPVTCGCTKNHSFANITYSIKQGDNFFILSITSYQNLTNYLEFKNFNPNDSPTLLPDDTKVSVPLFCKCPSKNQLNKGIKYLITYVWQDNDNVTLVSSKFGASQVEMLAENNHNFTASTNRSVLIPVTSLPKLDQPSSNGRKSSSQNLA

## CCCCCC/C=C\CCCCC/C=C/C(=O)N[C@H]1[C@H](O[C@H]2[C@H](O)[C@@H](NC(C)=O)[C@H](O[C@H]3[C@H](O)[C@@H](NC(C)=O)[C@H](O[C@H]4[C@H](O)[C@@H](NC(C)=O)C(O)O[C@@H]4COS(=O)(=O)O)O[C@@H]3CO)O[C@@H]2CO)O[C@H](COC(C)=O)[C@@H](O)[C@@H]1O (stereo partly shown) [S. meliloti Nod factor LCO-IV]
[1]; Table 8, read-out: A (converted)
  kon: 0.958 M⁻¹ s⁻¹
[1]; Table 8, read-out: D (converted)
  koff: 2.48e-05 s⁻¹
[1]; Table 9, BLI, read-out: koff
  koff: 0.00064 s⁻¹
[1]; Table 9, BLI, read-out: kon
  kon: 50.3 M⁻¹ s⁻¹
[2]
  affinity versus NFP WT (Table 8 data): approximately two times lower affinity
  association (Kon) versus NFP WT (Table 8 data): almost unaffected
  association rate (kon), fold faster than WT (Table 9 data): 4.5 fold
  dissociation (Koff), times faster than NFP WT (Table 8 data): approximately 15 times
  dissociation rate (koff), fold increase over WT (Table 9 data): 59 fold
  lower affinity compared to WT NFP ectodomain (Table 9 data): 13 fold

B1: construct 41: Nfr1 promoter; LYK3 (protein, UniProt Q6UD73 1-620, looked up)
chain: MNLKNGLLLFILFLDCVFFKVESKCVKGCDVALASYYIIPSIQLRNISNFMQSKIVLTNSFDVIMSYNRDVVFDKSGLISYTRINVPFPCECIGGEFLGHVFEYTTKEGDDYDLIANTYYASLTTVELLKKFNSYDPNHIPVKAKINVTVICSCGNSQISKDYGLFVTYPLRSDDTLAKIATKAGLDEGLIQNFNQDANFSIGSGIVFIPGRDQNGHFFPLYSRTGIAKGSAVGIAMAGIFGLLLFVIYIYAKYFQKKEEEKTKLPQTSRAFSTQDASGSAEYETSGSSGHATGSAAGLTGIMVAKSTEFTYQELAKATNNFSLDNKIGQGGFGAVYYAELRGEKTAIKKMDVQASSEFLCELKVLTHVHHLNLVRLIGYCVEGSLFLVYEHIDNGNLGQYLHGIGTEPLPWSSRVQIALDSARGLEYIHEHTVPVYIHRDVKSANILIDKNLRGKVADFGLTKLIEVGNSTLHTRLVGTFGYMPPEYAQYGDVSPKIDVYAFGVVLYELITAKNAVLKTGESVAESKGLVQLFEEALHRMDPLEGLRKLVDPRLKENYPIDSVLKMAQLGRACTRDNPLLRPSMRSIVVALMTLSSPTEDCDDDSSYENQSLINLLSTR
modifications: full-length expressed from Nfr1 promoter
notes: Nfr1 promoter; LYK3
[3]
  nodule formation (complementation of nfr1): absence of nodulation; also recorded: signaling incompetent

B2: wild type M. truncatula NFP gene: wild type M. truncatula NFP transgene used to transform nfp mutant roots (protein, UniProt Q0GXS4 1-595, looked up)
chain: MSAFFLPSSSHALFLVLMLFFLTNISAQPLYISETNFTCPVDSPPSCETYVAYRAQSPNFLSLSNISDIFNLSPLRIAKASNIEAEDKKLIPDQLLLVPVTCGCTKNHSFANITYSIKQGDNFFILSITSYQNLTNYLEFKNFNPNLSPTLLPLDTKVSVPLFCKCPSKNQLNKGIKYLITYVWQDNDNVTLVSSKFGASQVEMLAENNHNFTASTNRSVLIPVTSLPKLDQPSSNGRKSSSQNLALIIGISLGSAFFILVLTLSLVYVYCLKMKRLNRSTSSSETADKLLSGVSGYVSKPTMYEIDAIMEGTTNLSDNCKIGESVYKANIDGRVLAVKKIKKDASEELKILQKVNHGNLVKLMGVSSDNDGNCFLVYEYAENGSLEEWLFSESSKTSNSVVSLTWSQRITIAMDVAIGLQYMHEHTYPRIIHRDITTSNILLGSNFKAKIANFGMARTSTNSMMPKIDVFAFGVVLIELLTGKKAMTTKENGEVVILWKDFWKIFDLEGNREERLRKWMDPKLESFYPIDNALSLASLAVNCTADKSLSRPTIAEIVLCLSLLNQPSSEPMLERSLTSGLDAEATHVVTSVIAR
modifications: full-length
notes: wild type M. truncatula NFP transgene used to transform nfp mutant roots
[4]
  average nodules per plant: 10 nodules per plant

B3: A. thaliana CERK1: A. thaliana LysM chitin receptor CERK1 (protein, UniProt A8R7E6 24-617, looked up)
Chitin elicitor receptor …: KCRTSCPLALASYYLENGTTLSVINQNLNSSIAPYDQINFDPILRYNSNIKDKDRIQMGSRVLVPFPCECQPGDFLGHNFSYSVRQEDTYERVAISNYANLTTMESLQARNPFPATNIPLSATLNVLVNCSCGDESVSKDFGLFVTYPLRPEDSLSSIARSSGVSADILQRYNPGVNFNSGNGIVYVPGRDPNGAFPPFKSSKQDGVGAGVIAGIVIGVIVALLLILFIVYYAYRKNKSKGDSFSSSIPLSTKADHASSTSLQSGGLGGAGVSPGIAAISVDKSVEFSLEELAKATDNFNLSFKIGQGGFGAVYYAELRGEKAAIKKMDMEASKQFLAELKVLTRVHHVNLVRLIGYCVEGSLFLVYEYVENGNLGQHLHGSGREPLPWTKRVQIALDSARGLEYIHEHTVPVYVHRDIKSANILIDQKFRAKVADFGLTKLTEVGGSATRGAMGTFGYMAPETVYGEVSAKVDVYAFGVVLYELISAKGAVVKMTEAVGEFRGLVGVFEESFKETDKEEALRKIIDPRLGDSYPFDSVYKMAELGKACTQENAQLRPSMRYIVVALSTLFSSTGNWDVGNFQNEDLVSLMSGR
[5]
  binding kinetics to chitin fragments: fast association and dissociation rates
